# “Also recorded” adds a separate entry of the source.
# Experiments:
# [1] = test system: CD3-stimulated CD3+ splenic T cells; experiment: Seahorse OCR of activated CD3+ splenic T cells with mitochondrial fuel pathway inhibitors; type: cell-based, mouse; conditions: for maximal respiration: activated Sirt2−/− CD3+ T cells; for maximal respiration (in response of FCCP): activated WT CD3+ T cells
# Experimental: (§1) Extracellular acidification rate (ECAR) and oxygen consumption rate (OCR) were measured using the Seahorse XF analyzer (Agilent technologies). Glycolysis Stress Test (GST), glycolytic rate assay (GRA) and mitochondrial stress test (MST) were purchased from Agilent technologies and performed according to the kit manufacturer's instructions.
# (§2) The day of the assay, 2×10^5 activated T cells were plated in Cell-Tak (Corning)-coated XF96 plates in XF media (XF RPMI Medium pH 7.4 containing 2 mM L-glutamine only for GST or supplemented with 10 mM glucose, 2 mM L-glutamine and 1 mM sodium pyruvate for GRA and MST, all from Agilent technologies) via centrifugation to ensure cell attachment. Cells were equilibrated for 1 hr in a non-CO2 incubator before starting the assay.
# (§3) To measure the contribution of glycolysis, glutaminolysis and FAO as fuels for mitochondrial metabolism, OCR and ECAR were measured under basal conditions and in response to sequential injections of vehicle, UK5099 (2 μM), BPTES (3 μM) or Etomoxir (4 μM) inhibitors and then 1 μM oligomycin, 1 μM FCCP (Carbonyl cyanide 4-trifluoromethoxyphenylhydrazone) and 0.5 μM rotenone/antimycin A.
# [2] = test system: TILs from B16F10 tumor nodules; experiment: Seahorse OCR of TILs freshly isolated from B16F10 tumor nodules with Etomoxir; type: cell-based, mouse
# Experimental: Lymphocytes from subcutaneous tumors were isolated by dicing the tissues followed by enzymatic digestion in PBS containing collagenase type 4 (2 mg/ml, Worthington Biochemical) and DNase I (0.25 mg/ml, Sigma-Aldrich) for 45 min with occasional shaking at 37° C. Cell suspensions were then twice filtered through 100 μm and 40 μm cell strainers (Thermo Fisher Scientific) to obtain single-cell suspension followed by a PBS wash and red blood cell lysis using RBC Lysis Buffer (Biolegend). TILs were finally isolated by density gradient centrifugation using Percoll (GE Healthcare) and were further purified using CD3c MicroBeads Kit™ (Miltenyi Biotec) according to the manufacturer's instructions. T cell purity was greater than 90%. Fresh TILs were used directly for phenotypic and metabolic analyses or were cultured in complete RPMI medium for functional assays.
# as §3
# [3] = molecular target: T1, Sirt2 deacetylase activity (Homo sapiens, UniProt Q8IXJ6); experiment: Western blot of acetylated α-tubulin in human CD3+ enriched T cells; type: cell-based; conditions: 48 hr, listed as TM
# T1 construct: endogenous in cells; host or cells: human CD3+ T cells enriched from PBMC of healthy donors
# T1 sequence (Q8IXJ6 1-389): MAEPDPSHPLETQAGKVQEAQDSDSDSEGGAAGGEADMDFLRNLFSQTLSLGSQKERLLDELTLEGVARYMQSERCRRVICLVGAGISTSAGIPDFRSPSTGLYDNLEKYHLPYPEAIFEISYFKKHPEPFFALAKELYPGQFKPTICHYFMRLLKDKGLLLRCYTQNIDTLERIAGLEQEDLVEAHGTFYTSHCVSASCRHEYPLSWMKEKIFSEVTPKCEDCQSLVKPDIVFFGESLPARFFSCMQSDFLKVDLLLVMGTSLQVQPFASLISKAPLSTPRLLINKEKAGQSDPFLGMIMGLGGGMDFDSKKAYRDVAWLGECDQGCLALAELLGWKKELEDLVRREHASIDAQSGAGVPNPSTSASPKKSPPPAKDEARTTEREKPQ
# Experimental: (§4) Human peripheral blood mononuclear cells (PBMC) were obtained from healthy donors by density gradient centrifugation using Ficoll-Paque™ PLUS Media (GE Healthcare). CD3^+ lymphocytes were negatively enriched using human Pan T cell isolation Kit™ (Miltenyi Biotec).
# Whole cell lysates were prepared using lysis buffer (Pierce RIPA buffer, ThermoFisher Scientific) supplemented with cOmplete™ Protease Inhibitor Cocktail and PhosSTOP Phosphatase Inhibitor (Roche Applied Science).
# Cell lysates (20 ug) or IP samples were loaded onto 10% SDS-PAGE and separated by electrophoresis followed by semi-dry transfer into polyvinylidene fluoride membranes (Immun-Blot PVDF membrane, Bio-Rad) using Trans-Blot Turbo transfer system (Bio-Rad). After transfer, the membranes were blocked at room temperature with Tris-buffered saline (TBS) containing 0.05% Tween-20 (TBST) and 5% (w/v) milk for 1 h and then incubated overnight at 4° C. with a specific primary antibody (indicated below). […] After washing 3 times with TBST, bound antibodies were detected by chemiluminescence using the Pierce™ ECL Western Blotting Substrate and the Super Signal West Femto Maximum Sensitivity Substrate kits (ThermoFisher Scientific). […]
# human CD3+ T cells [4] = experiment: IFN-γ ELISPOT on human CD3+ T cells from healthy donors; type: cell-based; conditions: inhibitor vs vehicle, 48 hr, listed as TM
# human CD3+ T cells [5] = experiment: Seahorse extracellular flux analysis of CD3-stimulated human CD3+ T cells from healthy donors; type: cell-based; conditions: anti-CD3 plus inhibitor vs vehicle, 48 hr
# Experimental: as §4
# Extracellular acidification rates (ECAR) were measured using the Seahorse XF analyzer (Agilent). Glycolysis Stress Test (GST) and glycolytic rate assay (GRA) were performed according to kit manufacturer's instructions.
# as §2, with “test,” for “and MST,”, “hour” for “hr”
# For GST, ECAR was measured under basal conditions and in response to 10 mM glucose, 1 μM oligomycin and 50 mM 2-DG successively to calculate basal glycolytic rate, glycolytic capacity (in response to oligomycin), and glycolytic reserve (glycolytic capacity−basal rate). For GRA, ECAR was measured under basal conditions and in response to 0.5 μM rotenone+0.5 μM antimycin A and 50 mM 2-DG successively to calculate basal glycolysis and compensatory glycolysis (in response to rotenone+antimycin A). Results were normalized to total protein quantified using Pierce™ BCA Protein Assay Kit (ThermoFisher Scientific).
# Human peripheral blood mononuclear cells (PBMC) were obtained from healthy donors by density gradient centrifugation using Ficoll-Paque™ PLUS Media (GE Healthcare). CD3^+ lymphocytes were negatively enriched using human Pan T cell isolation Kit™ (Miltenyi Biotec). […].
# as §1, with “instructions. […]” for “instructions.”
# For GST, ECAR and OCR were measured under basal conditions and in response to 10 mM glucose, 1 μM oligomycin and 50 mM 2-DG successively to calculate basal glycolytic rate, glycolytic capacity (in response to oligomycin), and glycolytic reserve (glycolytic capacity basal rate).
# For GRA, ECAR and OCR were measured under basal conditions and in response to 0.5 μM roteone/antimycin A and 50 mM 2-DG successively to calculate basal glycolysis and compensatory glycolysis (in response to rotenone/antimycin A).
# Pmel T cells = experiment: IFN-γ ELISPOT on gp100-stimulated Pmel T cells; type: cell-based, mouse; conditions: gp100-stimulated Sirt2KO (Sirt2−/−) Pmel T cells
# Experimental: Spleens and/or Lymph nodes (LN) were collected from WT, Sirt2KO, Pmel/WT, Pmel/Sirt2KO mice and processed into single-cell suspensions. CD3^+, CD4^+ and CD8^+ T cells were negatively enriched using Mouse Pan T cell, CD4^+ T cell and CD8^+ T cell isolation Kits™ respectively according to the manufacturers' instructions. The purity of the isolated cells was confirmed by flow cytometry (>95%). Purified T cells were cultured in completed RPMI 1640 medium (ThermoFisher Scientific) supplemented with 10% (vol/vol) Fetal bovine serum (FBS, Biowest) and 1% (vol/vol) penicillin/streptomycin (P/S, Thomas Scientific Inc). […]
# The number of IFN-γ producing cells was evaluated in an ELISPOT assay. […] After washing steps and biotinylated anti-IFN-γ antibody (R4-6A2, ThermoFisher Scientific)+Streptavidin-HRP (BD Bioscience) labeling, spots were detected using AEC Substrate Kit (BD Biosciences) and counted using an AID ELISPOT Reader System (Autoimmun Diagnostika GmbH). […]
# The number of IFN-γ producing cells was evaluated in an ELISPOT assay. […] After washing steps and successive biotinylated anti-IFN-γ antibody (R4-6A2, Mabtech, Inc.) and Streptavidin-HRP (BD Bioscience) labeling, spots were detected using AEC Substrate Kit (BD Biosciences) and counted using an AID ELISPOT Reader System (Autoimmun Diagnostika GmbH).
compound,measurement,setting,value
O=C(Cc1ccccc1)Nc1nnc(CCSCCc2nnc(NC(=O)Cc3ccccc3)s2)s1 [BPTES],maximal respiration,[1],insensitive
same,maximal respiration (in response of FCCP),[1],significantly suppressed
CCOC(=O)[C@@]1(CCCCCCOc2ccc(Cl)cc2)CO1 [Etomoxir],maximal respiration,[1],insensitive
same,maximal respiration (in response of FCCP),[1],significantly suppressed
same,maximal respiration,[2]; Sirt2−/− TILs,remained resistant
same,maximal respiration,[2]; WT TILs,decreases
CCCCCCCCCCCCCC(=S)NCCCC[C@H](NC(=O)OCc1ccccc1)C(=O)Nc1ccccc1 [Thiomyristoyl],"capacity to block Sirt2 deacetylase activity, monitored by acetylated α-tubulin levels",[3],confirmed; also recorded: validated
same,IFN-γ production (effector function),human CD3+ T cells [4],increased; also recorded: augments
same,OxPhos,human CD3+ T cells [5],increased
same,aerobic glycolysis (ECAR/PER),human CD3+ T cells [5]; listed as TM,increased; also recorded: augments
N#C/C(=C\c1cn(-c2ccccc2)c2ccccc12)C(=O)O [UK5099],maximal respiration,[1],insensitive
same,maximal respiration (in response of FCCP),[1],significantly suppressed
CC[C@H]1/C=C/C=C/C[C@@H](C)[C@H](O)[C@@](C)(O)C(=O)[C@@H](C)[C@H](O)[C@@H](C)C(=O)[C@@H](C)[C@H](O)[C@@H](C)/C=C/C(=O)O[C@@H]2[C@H](C)[C@H](CC1)O[C@]1(CC[C@H](C)[C@H](C[C@@H](C)O)O1)[C@H]2C [oligomycin],IFN-γ release,Pmel T cells,suppressed
